Measurements taken from patent US9107928B2, “Compositions and methods for treating ophthalmic disorders” (Dyax Corp., priority 2006, dated 2015).
Where no end group is shown, it is not given here.

What was measured:
Type in all cases: in vivo
[1] = test system: pig model of RVO (branch retinal vein occlusion); assay: OCT-measured maximal retinal thickness in a pig model of RVO; settings: 21.2 μg/eye intra-vitreally immediately following RVO, 24 h after RVO
Experimental: Maximal retina thickness was determined 24 h after RVO from Optical Coherence Tomography images. Values are mean±s.e.mean. Comparison of values was performed by a one-way ANOVA following by a student t-test.
(§1) Mixed breed (Large White×Landrace×Pietrain) female pigs weighing 50 to 60 kg aged of 5 to 6 months were used. Following intramuscular injection of ketamine (10 mg/kg), azaperone (2 mg/kg) and atropine (0.02 mg/kg), anesthesia was induced by intravenous sodium thiopental (10 mg/kg). After tracheal intubation, anesthesia was maintained with isoflurane (1-2% in 100% O2) using a Hallowell ventilator (15 to 20 rpm; pressure at 20 cmH2O).
(§2) Pupil was dilated by tropicamide. Conjunctival disinsertion was followed by a 0.9 mm sclerotomy, 3 mm from the limbus. The fundus was observed using a plano-concave lens and the axial light of the operating microscope (Microscope OPMI 6-C, Zeiss, Germany). Branch retinal vein occlusion (RVO) of the major temporal vein was performed by transvitreal cauterization using a 300 micron probe (GN 300, Aesculap, Tuttlingen, Germany). Completion of the occlusion was assessed by the complete arrest of blood flow upstream of the occlusion site. Both eyes were submitted to RVO.
Animals that were submitted to RVO were randomised to receive either the vehicle or the drug (10 to 14 pigs/group). […]

[2] = test system: pig model of RVO (branch retinal vein occlusion); assay: Spontaneous retinal vein reperfusion 24 h after RVO in the pig; settings: 21.2 μg/eye intra-vitreally immediately following RVO
Experimental: as §1, §2
Animals that were submitted to RVO were randomised to receive either the vehicle or the drug (10 to 14 pigs/group). Accordingly, 100 μl of SEQ ID No 23 in solution (dosage of 21.2 μg/eye) or of the corresponding vehicle (saline) was injected intra-vitreally, immediately following RVO.

[3] = test system: pig model of RVO (branch retinal vein occlusion); assay: Evans Blue dye retinal concentration (extra-cellular retinal oedema) in a pig model of RVO; settings: 21.2 μg/eye intra-vitreally immediately following RVO, 24 h following RVO, p<0.01
Experimental: The amount of Evans Blue dye concentration into the retinal tissue reflects plasma extravasation and the extent of oedema. Control values represent retina Evans Blue Dye content of 2 eyes that were left non-operated and non-treated whilst sham-operated eyes (n=4) were submitted to the surgical procedure but without occlusion (See Methods). Values are mean±s.e.mean. Comparison of values was performed by a one-way ANOVA following by a student t-test. **, p<0.01
as §1
Pupil was dilated by tropicamide. […] Completion of the occlusion was assessed by the complete arrest of blood flow upstream of the occlusion site. […]
After OCT measurement, each animal received Evans Blue dye at 45 mg/kg i.v. and venous blood samples (approximately 1 ml) were obtained at 15 minutes intervals for 2 hours. […] Evans Blue dye concentration in plasma samples and in retina tissue was measured by spectrophotometry at both 620 nm and 740 nm.

Question: Which “Increase of maximal retinal thickness as measured by OCT” value [1] does the source give for “EAMHSFCAFKADDGPCRAAHPRWFFNIFTRQCEEFIYGGCEGNQNRFESLEECKKMCTRD (cysteine pairing not given here) [SEQ ID No 23]” here?
Answer: The value was “did not modify the increase of maximal retinal thickness”.

Question: And the “% of reperfused retinal vein at 24 h (spontaneous reperfusion, treated eyes)” value [2]?
Answer: Its value is 30%.

Question: And the “Number of reperfused retinal vein at 24 h” value ([2]; 13 pigs/26 eyes)?
Answer: Its value is 8.

Question: And the “Reduction of Evans Blue dye retinal concentration (extent of extra-cellular oedema)” value [3]?
Answer: The value was 47%.
